Assay results as given in patent US20100267561A1, “HERBICIDAL PYRIDAZINONE DERIVATIVES” (priority 2007, published 2010).

Legend:
Format in all cases: in vivo
rice (Oryza sativa) = assay: Test B flooded paddy test plant response
Outline: (§1)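 Step one: raise plants to 2 leaves. Step two: flood pots 3 cm over the soil and apply compound into the water, keeping this depth. Step three: after 13–15 greenhouse days, score visually versus controls, 0–100, where 100 means complete control.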

[1] = tested on: ducksalad (Heteranthera limosa); assay: Test B flooded paddy test plant response
Outline: as §1

[2] = tested on: umbrella sedge (Cyperus difformis); assay: Test B flooded paddy test plant response
Outline: as §1

[3] = tested on: barnyardgrass (Echinochloa crus-galli); assay: Test B flooded paddy test plant response
Outline: as §1

[4] = tested on: velvetleaf (Abutilon theophrasti); assay: Test A pre-/postemergence plant response
Outline: (§2)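 Both pre- and postemergence treatment given concurrently; postemergence seedlings measured 2–10 cm at the one- to two-leaf stage. Visual injury, 0–100 scale versus untreated, at ~10 days.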

corn (Zea mays) = assay: Test A pre-/postemergence plant response
Outline: as §2

[5] = tested on: large crabgrass (Digitaria sanguinalis); assay: Test A pre-/postemergence plant response
Outline: as §2

[6] = tested on: morningglory (Ipomoea coccinea); assay: Test A pre-/postemergence plant response
Outline: as §2

[7] = tested on: pigweed (Amaranthus retroflexus); assay: Test A pre-/postemergence plant response
Outline: as §2

[8] = tested on: wheat (Triticum aestivum); assay: Test A pre-/postemergence plant response
Outline: as §2

[9] = tested on: barnyardgrass (Echinochloa crus-galli); assay: Test A pre-/postemergence plant response
Outline: as §2

[10] = tested on: winter barley (Hordeum vulgare); assay: Test B postemergence plant response; details: for Barley plant response rating: 8 g ai/ha, postemergence, 0-100 scale; for Plant response rating, Barley: Postemergence
Outline: (§3)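 Compounds applied after emergence to 2–18 cm plants; response read visually 13–15 days later on 0 (none) to 100 (complete control); a dash marks no result.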

[11] = tested on: canarygrass (Phalaris minor); assay: Test B postemergence plant response; details: for Canarygrass plant response rating: 8 g ai/ha, postemergence, 0-100 scale; for Plant response rating, Canarygrass: Postemergence
Outline: as §3

[12] = tested on: windgrass (Apera spica-venti); assay: Test B postemergence plant response; details: for Windgrass plant response rating: 8 g ai/ha, postemergence, 0-100 scale; for Plant response rating, Windgrass: Postemergence
Outline: as §3

[13] = tested on: chickweed (Stellaria media); assay: Test B postemergence plant response; details: for Chickweed plant response rating: 8 g ai/ha, postemergence, 0-100 scale; for Plant response rating, Chickweed: Postemergence
Outline: as §3

[14] = Flood (flooded paddy test), 62 g ai/ha, scale 0 to 100, 0 no effect, 100 complete control
[15] = Flood (flooded paddy test), 125 g ai/ha, scale 0 to 100, 0 no effect, 100 complete control
[16] = Flood (flooded paddy test), 250 g ai/ha, scale 0 to 100, 0 no effect, 100 complete control
[17] = Flood, 31 g ai/ha, scale 0 to 100
[18] = Postemergence, 31 g ai/ha, 0 to 100 scale (0 no effect, 100 complete control)
[19] = Postemergence, 125 g ai/ha, 0 to 100 scale, 0 no effect, 100 complete control
[20] = Preemergence, 31 g ai/ha, 0 to 100 scale, 0 is no effect, 100 is complete control
[21] = Preemergence, 125 g ai/ha, 0 to 100 scale (0 no effect, 100 complete control)
[22] = 16 g ai/ha, scale 0 to 100, 0 no effect, 100 complete control
[23] = 31 g ai/ha, scale 0 to 100, 0 no effect, 100 complete control
[24] = 62 g ai/ha, scale 0 to 100, 0 no effect, 100 complete control
[25] = Postemergence, 500 g ai/ha, 0 to 100 scale, 0 no effect, 100 complete control
[26] = Preemergence, 500 g ai/ha, 0 to 100 scale (0 no effect, 100 complete control)

## COC(=O)Oc1cnn(C)c(=O)c1-n1nc(-c2ccc(Cl)cc2)cc1C [Compound 33]
Rice (Oryza sativa); [14]
  Plant response rating, Rice: 65
Rice (Oryza sativa); [15]
  Plant response rating, Rice: 75
Rice (Oryza sativa); [16]
  Plant response rating, Rice: 80
Rice (Oryza sativa); [17]
  Plant response rating, Rice: 30
[1]; [14]
  Plant response rating, Ducksalad: 0
[1]; [15]
  Plant response rating, Ducksalad: 40
[1]; [16]
  Plant response rating, Ducksalad: 50
[1]; [17]
  Plant response rating, Ducksalad: 0
[2]; [14]
  Plant response rating, Sedge, Umbrella: 20
[2]; [15]
  Plant response rating, Sedge, Umbrella: 35
[2]; [16]
  Plant response rating, Sedge, Umbrella: 60
[2]; [17]
  Plant response rating, Sedge, Umbrella: 0
[3]; [14]
  Plant response rating, Barnyardgrass: 60
[3]; [15]
  Plant response rating, Barnyardgrass: 85
[3]; [16]
  Plant response rating, Barnyardgrass: 100
[3]; [17]
  Plant response rating, Barnyardgrass: 30
[4]; [18]
  Plant response rating, Velvetleaf: 0
[4]; [19]
  Plant response rating, Velvetleaf: 0
[4]; [20]
  Plant response rating, Velvetleaf: 0
[4]; [21]
  Plant response rating, Velvetleaf: 0
Corn (Zea mays); [18]
  Plant response rating, Corn: 60
Corn (Zea mays); [19]
  Plant response rating, Corn: 90
Corn (Zea mays); [20]
  Plant response rating, Corn: 30
Corn (Zea mays); [21]
  Plant response rating, Corn: 90
[5]; [18]
  Plant response rating, Crabgrass, Large: 90
[5]; [19]
  Plant response rating, Crabgrass, Large: 100
[5]; [20]
  Plant response rating, Crabgrass, Large: 90
[5]; [21]
  Plant response rating, Crabgrass, Large: 100
[6]; [18]
  Plant response rating, Morningglory: 0
[6]; [19]
  Plant response rating, Morningglory: 0
[6]; [20]
  Plant response rating, Morningglory: 0
[6]; [21]
  Plant response rating, Morningglory: 0
[7]; [18]
  Plant response rating, Pigweed: 0
[7]; [19]
  Plant response rating, Pigweed: 0
[7]; [21]
  Plant response rating, Pigweed: 0
[8]; [18]
  Plant response rating, Wheat: 20
[8]; [19]
  Plant response rating, Wheat: 70
[8]; [20]
  Plant response rating, Wheat: 50
[8]; [21]
  Plant response rating, Wheat: 80
[9]; [18]
  Plant response rating, Barnyardgrass: 90
[9]; [19]
  Plant response rating, Barnyardgrass: 100
[9]; [20]
  Plant response rating, Barnyardgrass: 100
[9]; [21]
  Plant response rating, Barnyardgrass: 100
[10]
  Barley plant response rating: 0
[10]; [22]
  Plant response rating, Barley: 25
[10]; [23]
  Plant response rating, Barley: 30
[10]; [24]
  Plant response rating, Barley: 30
[11]
  Canarygrass plant response rating: 0
[11]; 16 g ai/ha, scale 0 to 100
  Plant response rating, Canarygrass: 35
[11]; [23]
  Plant response rating, Canarygrass: 80
[12]
  Windgrass plant response rating: 10
[12]; 16 g ai/ha, scale 0 to 100
  Plant response rating, Windgrass: 50
[12]; [24]
  Plant response rating, Windgrass: 70
[13]
  Chickweed plant response rating: 0
[13]; 16 g ai/ha, scale 0 to 100
  Plant response rating, Chickweed: 0
[13]; [23]
  Plant response rating, Chickweed: 0
[13]; [24]
  Plant response rating, Chickweed: 0

## CCc1cc(-c2ccc(C(F)(F)F)cc2)nn1-c1c(OS(C)(=O)=O)cnn(C)c1=O [Compound 19]
Rice (Oryza sativa); [14]
  Plant response rating, Rice: 20
Rice (Oryza sativa); [15]
  Plant response rating, Rice: 60
Rice (Oryza sativa); [16]
  Plant response rating, Rice: 70
Rice (Oryza sativa); [17]
  Plant response rating, Rice: 0
[1]; [14]
  Plant response rating, Ducksalad: 0
[1]; [15]
  Plant response rating, Ducksalad: 0
[1]; [16]
  Plant response rating, Ducksalad: 25
[1]; [17]
  Plant response rating, Ducksalad: 0
[2]; [14]
  Plant response rating, Sedge, Umbrella: 30
[2]; [15]
  Plant response rating, Sedge, Umbrella: 60
[2]; [16]
  Plant response rating, Sedge, Umbrella: 70
[2]; [17]
  Plant response rating, Sedge, Umbrella: 0
[3]; [14]
  Plant response rating, Barnyardgrass: 30
[3]; [15]
  Plant response rating, Barnyardgrass: 60
[3]; [16]
  Plant response rating, Barnyardgrass: 75
[3]; [17]
  Plant response rating, Barnyardgrass: 0
[4]; [19]
  Plant response rating, Velvetleaf: 0
[4]; [25]
  Plant response rating, Velvetleaf: 0
[4]; [21]
  Plant response rating, Velvetleaf: 0
[4]; [26]
  Plant response rating, Velvetleaf: 0
Corn (Zea mays); [19]
  Plant response rating, Corn: 90
Corn (Zea mays); [25]
  Plant response rating, Corn: 90
Corn (Zea mays); [21]
  Plant response rating, Corn: 80
Corn (Zea mays); [26]
  Plant response rating, Corn: 90
[5]; [19]
  Plant response rating, Crabgrass, Large: 90
[5]; [25]
  Plant response rating, Crabgrass, Large: 100
[5]; [21]
  Plant response rating, Crabgrass, Large: 100
[5]; [26]
  Plant response rating, Crabgrass, Large: 100
[6]; [19]
  Plant response rating, Morningglory: 0
[6]; [25]
  Plant response rating, Morningglory: 0
[6]; [21]
  Plant response rating, Morningglory: 0
[6]; [26]
  Plant response rating, Morningglory: 0
[7]; [19]
  Plant response rating, Pigweed: 0
[7]; [25]
  Plant response rating, Pigweed: 0
[7]; [21]
  Plant response rating, Pigweed: 0
[7]; [26]
  Plant response rating, Pigweed: 0
[8]; [19]
  Plant response rating, Wheat: 60
[8]; [25]
  Plant response rating, Wheat: 90
[8]; [21]
  Plant response rating, Wheat: 90
[8]; [26]
  Plant response rating, Wheat: 100
[9]; [19]
  Plant response rating, Barnyardgrass: 100
[9]; [25]
  Plant response rating, Barnyardgrass: 100
[9]; [21]
  Plant response rating, Barnyardgrass: 100
[9]; [26]
  Plant response rating, Barnyardgrass: 100
[10]
  Barley plant response rating: 0
[10]; [22]
  Plant response rating, Barley: 5
[10]; [23]
  Plant response rating, Barley: 5
[10]; 62 g ai/ha, scale 0 to 100
  Plant response rating, Barley: 90
[11]
  Canarygrass plant response rating: 0
[11]; 16 g ai/ha, scale 0 to 100
  Plant response rating, Canarygrass: 20
[11]; [23]
  Plant response rating, Canarygrass: 20
[11]; 62 g ai/ha, scale 0 to 100
  Plant response rating, Canarygrass: 100
[12]
  Windgrass plant response rating: 90
[12]; 16 g ai/ha, scale 0 to 100
  Plant response rating, Windgrass: 95
[12]; [23]
  Plant response rating, Windgrass: 100
[12]; 62 g ai/ha, scale 0 to 100
  Plant response rating, Windgrass: 100
[13]
  Chickweed plant response rating: 0
[13]; 16 g ai/ha, scale 0 to 100
  Plant response rating, Chickweed: 0
[13]; 62 g ai/ha, scale 0 to 100
  Plant response rating, Chickweed: 0
